The values that follow come from patent publication US20240140966A1, “AMORPHOUS AND CRYSTALLINE FORMS OF MCL-1 ANTAGONISTS” (AMGEN INC., priority 2022, published 2024).

Data set [1] is described as follows: Moisture sorption (DVS). In kind it is physicochemical. The note with it: for hygroscopicity (in words): DVS up to 95% RH; for XRPD of the post-DVS material: after DVS cycle. The procedure: Moisture Sorption: Moisture sorption data was collected at 25° C. using a VTI vapor sorption analyzer. A sample size of approximately 4-10 mg was used in a standard platinum pan. Hygroscopicity was evaluated from 5 to 95% RH in increments of 5% RH. Data for adsorption and desorption cycles were collected. Equilibrium criteria were set at 0.001% weight change in 10 minute with a maximum equilibration time of 180 minutes.

Data set [2] can be described thus: Solid state stability assessment under accelerated conditions. It is filed as physicochemical. Particulars: for XRPD after solid state physical stability assessment: 8 weeks under stress conditions; for chemical and physical stability after 8 weeks: 25° C./60% RH (open), 40° C. (closed), 60° C. (closed), 40° C./75% RH (open). The procedure: Solid state stability assessment of AMG 176 Form 1 was conducted at 25° C./60% RH (open), 40° C. (closed), 60° C. (closed), and 40° C./75% RH (open) accelerated conditions to determine the chemical and physical stability of AMG 176.
Solid state stability assessment of AMG 176 amorphous material and Form 1 was conducted at 25° C./60% RH (open), 40° C. (closed), 60° C. (closed), and 40° C./75% RH (open) accelerated conditions to determine the chemical and physical stability of AMG 176.

The nature of data set [3]: Dog PK studies, amorphous versus crystalline suspension. In kind it is in vivo. The note with it: AMG 176 dosed as an amorphous suspension as compared to the crystalline suspension. An excerpt:
AMG 176 Form 1 has acceptable pharmaceutical and physical properties, can be scaled to kilogram quantities, and can be compounded during drug product formulating as an in situ sodium salt to achieve desired drug concentrations to enable IV delivery. AMG 176 can also be converted to amorphous material to support oral dosing, if desired, depending on the dosing range. […] While improved exposures were observed by dosing the amorphous material, the exposures would likely plateau if gram level doses are need for oral delivery.

The mark [4] stands for this setting: DVS, 25° C., adsorption 5% to 95% RH.

“Also recorded” adds a separate entry of the source.

For the molecule `CO[C@H]1/C=C/C[C@H](C)[C@@H](C)S(=O)(=O)NC(=O)c2ccc3c(c2)N(C[C@@H]2CC[C@H]21)C[C@@]1(CCCc2cc(Cl)ccc21)CO3` [AMG 176 Form 1], in data set [1], the “hygroscopicity (in words)” value was “low hygroscopicity; also recorded: non-hygroscopic” and the “XRPD of the post-DVS material” value is listed as “no form change”. For the same molecule, the “water vapor uptake between 5% and 95% RH” value in data set [1] (setting [4]) is on record as 0.3%. The “XRPD after solid state physical stability assessment” value in data set [2] (listed as crystalline Form 1 of AMG 176) is on record as “Form conversion was not observed”. For the same molecule, the “chemical and physical stability after 8 weeks” value in data set [2] is “physically and chemically stable”.

As for `CO[C@H]1/C=C/C[C@H](C)[C@@H](C)S(=O)(=O)NC(=O)c2ccc3c(c2)N(C[C@@H]2CC[C@H]21)C[C@@]1(CCCc2cc(Cl)ccc21)CO3` [AMG 176, (1S,3′R,6′R,7′S,8′E,11′S,12′R)-6-chloro-7′-methoxy-11′,12′-dimethyl-3,4-dihydro-2H,15′H-spiro[naphthalene-1,22′-[20]oxa[13]thia[1,14]diazatetracyclo[14.7.2.0^3,6.O^19,24]pentacosa[8,16,18,24]tetraen]-15′-one 13′,13′-dioxide], the improvement of absorption in data set [3] is 10 ×.

`CO[C@H]1/C=C/C[C@H](C)[C@@H](C)S(=O)(=O)NC(=O)c2ccc3c(c2)N(C[C@@H]2CC[C@H]21)C[C@@]1(CCCc2cc(Cl)ccc21)CO3` [Amorphous AMG 176]: the “hygroscopicity (in words)” value in data set [1] is on record as “limited hygroscopicity”. Also, the “water vapor uptake (weight gain) between 5% and 95% RH” value is recorded as 0.95 wt % in data set [1] (setting [4]) and “about 0.95 wt %” in data set [1] (DVS, 25° C., adsorption 5% to 95% RH, listed as amorphous form of AMG 176). Besides, the “weight gain at 95% RH” value in data set [1] (DVS, 95% relative humidity) is recorded as 0.95%. Also, the “weight lost upon desorption” value in data set [1] (DVS, desorption cycle, likely loss of residual DCM and/or water) is reported as 1.59%. Also, the “XRPD of the post-DVS material” value in data set [1] and in data set [1] (listed as amorphous form of AMG 176) was “consistent with amorphous material” in each case. The “XRPD after solid state physical stability assessment” value in data set [2] is recorded as “Crystallization not observed”. Besides, in data set [2], the “chemical and physical stability after 8 weeks” value was “physically and chemically stable”.
